Test results published in US20230167088A1, “1-PYRAZINYLPYRAZOLYL-3-OXYALKYL ACIDS AND THEIR DERIVATIVES, AND THEIR USE FOR CONTROL OF UNDESIRED PLANT GROWTH” (BAYER AKTIENGESELLSCHAFT, priority 2020, published 2023).

What was measured:
ABUTH [1] = assay: Herbicidal post-emergence action 1a (greenhouse pots, visual rating); assay type: in vivo, Abutilon theophrasti; details: visual rating about 3 weeks after treatment
Procedure, shortened: (§1)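 Weeds and crops sown in sandy loam in greenhouse pots were sprayed post-emergence at the one-leaf stage (2–3 weeks after sowing) with WP or EC formulations plus 0.5% additive at 600 l/ha water, 320 and/or 80 g/ha. About 3 weeks later damage was rated visually against untreated controls (0% = no effect, 100% = dead).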

MATIN [2] = assay: as above; assay type: in vivo, Matricaria inodora; details: visual rating about 3 weeks after treatment
Procedure, shortened: as §1

POLCO = assay: as above; assay type: in vivo, Polygonum convolvulus; details: visual rating about 3 weeks after treatment
Procedure, shortened: as §1

ABUTH [3] = assay: Herbicidal post-emergence action 1b (twin sowing, 1280 g/ha); assay type: in vivo, Abutilon theophrasti; details: dosage 1280 g/ha, visual rating about 3 weeks after treatment
Procedure, shortened: (§2)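 Twin-sown weeds in sandy loam, greenhouse-grown 2–3 weeks, sprayed post-emergence at one-leaf stage with WP/EC formulations plus 0.5% additive at 600 L/ha water. Damage rated visually about 3 weeks later versus untreated controls (100% = plants dead, 0% = like control).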

ALOMY = assay: Herbicidal pre-emergence action 2a (greenhouse pots, visual scoring); assay type: in vivo, Alopecurus myosuroides; details: dosage 320 g/ha, visual scoring after about 3 weeks
Procedure, shortened: (§3)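 Visual percent rating, ~3 weeks after treatment, untreated pots as reference (0% = control-like, 100% = killed). Application: formulated compound on soil surface over seeds, 320 g/ha and/or 80 g/ha.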

AVEFA = assay: as above; assay type: in vivo, Avena fatua; details: dosage 320 g/ha, visual scoring after about 3 weeks
Procedure, shortened: as §3

SETVI = assay: as above; assay type: in vivo, Setaria viridis; details: dosage 320 g/ha, visual scoring after about 3 weeks vs untreated controls
Procedure, shortened: as §3

MATIN [4] = assay: as above; assay type: in vivo, Matricaria inodora; details: dosage 320 g/ha, visual scoring after about 3 weeks vs untreated controls
Procedure, shortened: as §3

DIGSA [5] = assay: Herbicidal post-emergence action 1b (twin sowing, 1280 g/ha); assay type: in vivo, Digitaria sanguinalis; details: dosage 1280 g/ha, visual rating about 3 weeks after treatment
Procedure, shortened: as §2

DIGSA [6] = assay: Herbicidal pre-emergence action 2b (doubly sown, 1280 g/ha); assay type: in vivo, Digitaria sanguinalis; details: doubly sown pots, dosage 1280 g/ha, visual scoring after about 3 weeks
Procedure, shortened: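 Pots of sandy loam doubly sown with one monocot and one dicot weed species, covered, then soil surface sprayed pre-emergence with WP or EC formulations plus 0.5% additive at 600 l/ha water. Greenhouse-grown about 3 weeks; activity scored visually as % versus untreated controls (100% = dead).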

PHBPU = assay: Herbicidal pre-emergence action 2a (greenhouse pots, visual scoring); assay type: in vivo, Pharbitis purpurea; details: dosage 320 g/ha, visual scoring after about 3 weeks vs untreated controls
Procedure, shortened: as §3

ABUTH [7] = assay: as above; assay type: in vivo, Abutilon theophrasti; details: dosage 320 g/ha, visual scoring after about 3 weeks vs untreated controls
Procedure, shortened: as §3

| SMILES | Post-emergence action against ABUTH in % (ABUTH [1]; dosage 320 g/ha) [%] | Post-emergence action against MATIN in % (MATIN [2]; dosage 320 g/ha) [%] | Post-emergence action against POLCO in % (POLCO; dosage 320 g/ha) [%] | Post-emergence action at 1280 g/ha against ABUTH in % (ABUTH [3]) [%] | Pre-emergence action against ALOMY in % (ALOMY) [%] | Pre-emergence action against AVEFA in % (AVEFA) [%] | Pre-emergence action against SETVI in % (SETVI) [%] | Pre-emergence action against MATIN in % (MATIN [4]) [%] | Post-emergence action against ABUTH in % (ABUTH [1]; dosage 80 g/ha) [%] | Post-emergence action at 1280 g/ha against DIGSA in % (DIGSA [5]) [%] | Pre-emergence action at 1280 g/ha against DIGSA in % (DIGSA [6]) [%] | Post-emergence action against MATIN in % (MATIN [2]; dosage 80 g/ha) [%] | Post-emergence action against POLCO in % (POLCO; dosage 80 g/ha) [%] | Pre-emergence action against PHBPU in % (PHBPU) [%] | Pre-emergence action against ABUTH in % (ABUTH [7]) [%] |
| --- | --- | --- | --- | --- | --- | --- | --- | --- | --- | --- | --- | --- | --- | --- | --- |
| COC(=O)C(C)Oc1nn(-c2cnccn2)c(-c2ccc(F)c(F)c2)c1Br (racemic) [Example I-16] | 80 | 80 | 90 | 90 | 90 | 90 | 100 | 90 | – | – | – | – | – | – | – |
| C[C@H](Oc1nn(-c2cnccn2)c(-c2cncc(F)c2)c1Br)C(=O)O [Example I-37] | 80 | 80 | 100 | 90 | 100 | 90 | 100 | 90 | 80 | 100 | 100 | – | – | – | – |
| CCOC(=O)COc1nn(-c2cnccn2)c(-c2ccc(F)nc2)c1Cl [Example I-53] | – | – | 90 | 90 | 100 | 90 | 100 | 100 | 80 | 100 | 100 | 80 | 90 | – | – |
| COC(=O)[C@@H](C)Oc1nn(-c2cnccn2)c(-c2ccc(F)nc2)c1Cl [Example I-36] | 80 | 80 | 100 | 90 | 100 | 100 | 100 | 80 | – | 100 | 100 | – | 90 | – | – |
| COC(=O)COc1nn(-c2cnccn2)c(-c2ccc(F)c(F)c2)c1Br [Example I-15] | 80 | 80 | – | – | 90 | 80 | 100 | 100 | 80 | – | – | – | – | 90 | – |
| COC(=O)C(C)Oc1nn(-c2cnccn2)c(-c2ccc(F)c(F)c2)c1C#N (racemic) [Example I-22] | – | 80 | 80 | – | 100 | 90 | 100 | – | – | – | – | – | – | – | – |
| COC(=O)[C@@H](C)Oc1nn(-c2cnccn2)c(-c2ccc(F)c(F)c2)c1Br [Example I-45] | 80 | 80 | 100 | 90 | 100 | 80 | 100 | 100 | – | 100 | 100 | – | – | – | – |
| COC(=O)[C@@H](C)Oc1nn(-c2cnccn2)c(-c2cccc(F)c2)c1Br [Example I-20] | 90 | – | 80 | 90 | 90 | 80 | 100 | 90 | 80 | – | – | – | – | – | – |
| CCOC(=O)COc1nn(-c2cnccn2)c(-c2ccc(F)nc2)c1Br [Example I-52, ethyl {[4-bromo-5-(6-fluoropyridin-3-yl)-1-(pyrazin-2-yl)-1H-pyrazol-3-yl]oxy}acetate] | 80 | – | 80 | – | 90 | – | 90 | 90 | – | – | 100 | – | – | 100 | – |
| COC(=O)COc1nn(-c2cnccn2)c(-c2ccc(F)nc2)c1Br [Example I-11] | 80 | 80 | 90 | 90 | 100 | – | 100 | 90 | – | 100 | 90 | – | – | 90 | – |
| COC(=O)[C@@H](C)Oc1nn(-c2cnccn2)c(-c2ccnc(F)c2)c1Br [Example I-34] | – | 90 | 100 | – | 100 | 90 | 100 | – | – | 100 | 100 | – | – | – | – |
| COC(=O)[C@@H](C)Oc1nn(-c2cnccn2)c(-c2cncc(F)c2)c1Br [Example I-39] | 80 | 90 | 90 | – | 100 | 90 | 100 | 90 | 80 | 100 | 100 | 80 | – | – | 90 |
| COC(=O)[C@@H](C)Oc1nn(-c2cnccn2)c(-c2cncc(F)c2)c1C#N [Example I-40] | 80 | – | 80 | – | 100 | – | 100 | – | 80 | 90 | 100 | – | 80 | – | – |
